From US10668156B2, “Active-ingredient-containing solid dispersions based on diethylaminoethyl methacrylate copolymers” (BASF SE, priority 2012, dated 2020)

What was measured:
Assay type in all cases: physicochemical
[1] = Film method: loading capacity of active ingredient in polymer films, microscopic assessment after storage; settings: for Loading capacity, active ingredients in %, Films with Kollicoat ® Smartseal + 6 mol partially neutralized: 6 mol % of basic groups neutralized with adipic acid; for Loading capacity, active ingredients in %, Films with Kollicoat ® Smartseal + 6 mol partially neutralized / Loading capacity, active ingredients in %, Films with Kollicoat ® Smartseal + 8 mol partially neutralized / Loading capacity, active ingredients in %, Films with Eudragit ® EPO / Loading capacity, active ingredients in %, Films with Kollicoat ® Smartseal freeze-dried: no crystals in film, storage 7 days 23° C./54% relative humidity; for Loading capacity, active ingredients in %, Films with Kollicoat ® Smartseal + 8 mol partially neutralized: 8 mol % of basic groups neutralized with succinic acid; for Loading capacity, active ingredients in %, Films with Eudragit ® EPO / Loading capacity, active ingredients in %, Films with Kollicoat ® Smartseal freeze-dried: molecularly disperse dissolved active ingredient
Excerpt: The film method is a process in which a clear solution of the polymer and of the active ingredient is molded to give a thin film which solidifies as a result of the solvent evaporating. Clear solution means that no clouding is evident upon normal inspection. This method is suitable in particular as a screening method in order to determine the loading limits of the solid dispersions in a simple manner. For the screening process, the film can be produced by pouring the solution with the corresponding concentrations of polymer and active ingredient onto glass plates and drawing it out with the help of a blade to give the film. Usually, the films are drawn to layer thicknesses of from 50 to 200 μm. The resulting films are then dried by drawing off the solvent, and solidified as a result. In one or more embodiments, the solvent is removed in vacuo, for example at 1 hPa to 100 hPa. […] Additionally, the removal of the solvent can be effected by the action of temperature.
For the screening process, the films produced are then stored under controlled climatic conditions for defined periods of time—generally 14 days.
The films can then be evaluated by microscope at 40 times magnification. Clear films are a sign of amorphous systems. Cloudy films point to relatively large crystalline fractions.
To prepare the polymer/active ingredient mixture, the substances were weighed in the respective amounts into a 50 ml penicillin bottle.
All of the mixtures were stirred for 24 h on a magnetic stirrer until the constituents had dissolved. After visually assessing the solution (clear solution), the solvent was drawn out on a glass plate using a 120 μm blade. The resulting film was dried for 0.5 h at room temperature of 22+/−2° C. in a fume cupboard and then for 0.5 h in a vacuum drying cabinet at 50° C. and […]. […] Clear films (without active ingredient crystals) indicate molecularly disperse solutions and cloudy films (with active ingredient crystals) indicate crystalline systems.

[2] = Spray-drying: loading capacity assessed by XRD; settings: active ingredient in Kollicoat ® Smartseal
Procedure: (§1) To prepare the polymer/active ingredient mixture, the substances were weighed into an appropriate storage vessel. The corresponding amount of solvent was added and the mixture was stirred until the polymer and the active ingredient had completely dissolved. […] The solids fraction of the spraying solution was 20% by weight for all experiments. The spray-drying was carried out on a laboratory scale.
(§2) The liquid to be dried was atomized using a two-material nozzle. A heated gas (here nitrogen) flowing concurrently dries the distributed drops to give solid particles with particle diameters in the range 5-20 μm. In the entry area of the spray drier, the drying gas is supplied tangentially. The dry product particles are separated off in a cyclone.
Loading capacity of Kollicoat® Smartseal with different active ingredients in the spray-drying. Spray-drying experiments carried out on the laboratory scale: • 1. Itraconazole: Kollicoat® Smartseal with 40+50% (w/w) itraconazole • 2. Fenofibrate: Kollicoat® Smartseal with 40+50% (w/w) fenofibrate • 3.

[3] = Spray-drying: loading capacity assessed by DSC; settings: active ingredient in Kollicoat ® Smartseal
Procedure: as §1, §2

Compound | Loading capacity, active ingredients in %, Films with Kollicoat ® Smartseal + 6 mol partially neutralized [1] [%] | Loading capacity, active ingredients in %, Films with Kollicoat ® Smartseal + 8 mol partially neutralized [1] [%] | Loading capacity, active ingredients in %, Films with Eudragit ® EPO [1] [%] | Loading capacity, active ingredients in %, Films with Kollicoat ® Smartseal freeze-dried [1] [%] | Loading spray-drying [XRD, %] [2] [%] | Loading film method ([1]; active ingredient in Kollicoat ® Smartseal) [%] | Loading spray-drying [DSC, %] [3] [%]
CC(C)Cc1ccc(C(C)C(=O)O)cc1 (stereo not drawn) [Ibuprofen 50, Ibuprofen] | 30 | 30 | – | – | – | – | –
C#C[C@]1(O)CC[C@H]2[C@@H]3CCC4=Cc5oncc5C[C@]4(C)[C@H]3CC[C@@]21C [Danazol] | 50 | 50 | <10 | 50 | – | – | –
COc1ccc2cc([C@H](C)C(=O)O)ccc2c1 [Naproxen] | – | – | 30 | – | 50 | 50 | 50
Clc1ccccc1C(c1ccccc1)(c1ccccc1)n1ccnc1 [Clotrimazole] | 35 | 35 | 20 | 35 | – | – | –
NC(=O)N1c2ccccc2C=Cc2ccccc21 [Carbamazepine] | 30 | 30 | <10 | 20 | – | – | –
